From the OligoGym collection
After the bases stand the sugars from the 5' end (letter, count) and the backbone: PS all phosphorothioate, else s phosphorothioate and o phosphodiester by linkage. Methylation of C is not given here. e = 2'-O-(2-methoxyethyl) (MOE); k = constrained ethyl (cEt); d = 2'-deoxy (DNA); m = 2'-O-methyl

Biological target: HSD17B13
Conditions: ASO, HepaRG

| Sequence | target mRNA inhibition (1 µM) [%] | further results |
| --- | --- | --- |
| CATAGAACTAGAACTC (sugars k3 d10 k3, PS) | 19 |  |
| TTTTGTCCACCTTTAA (sugars k3 d10 k3, PS) | 68 |  |
| GGTCACCTTTCATAAT (sugars k3 d1 m1 d8 k3, PS) | 48 |  |
| CCACACTAATGAATCA (sugars k3 d10 k3, PS) | 43 |  |
| GGCTAGGGAAATCTTT (sugars k3 d10 k3, PS) | 57 |  |
| GATGTAGTGGGAGTCG (sugars kkdddddddddkekek, PS) | 38 |  |
| ATACATACCACTCTTC (sugars k3 d10 k3, PS) | 18 |  |
| GTAATAGCCAGTACAG (sugars k3 d9 k3 e1, PS) | 62 |  |
| GGTAATTAATCTTGTT (sugars k3 d10 k3, PS) | 58 |  |
| GTTATCAGAAACTTAT (sugars k3 d10 k3, PS) | 31 |  |
| TCATTAGGAAAAGTGT (sugars k3 d10 k3, PS) | 16 |  |
| GATAGTGAACATACAT (sugars k3 d10 k3, PS) | 54 |  |
| AGATATTGATATACGA (sugars k3 d10 k3, PS) | 20 |  |
| ATATTGTTTAGCTGAT (sugars k3 d10 k3, PS) | 14 |  |
| TGCATAAGAGCCAAAC (sugars k3 d10 k3, PS) | 56 |  |
| AACTCTATTGATTGGC (sugars k3 d10 k3, PS) | 72 |  |
| TCTAAATTATTGCCTG (sugars k3 d10 k3, PS) | 43 |  |
| CATAGTTTATATGGAT (sugars k3 d10 k3, PS) | 56 |  |
| TCTTGATGTAGTGGGA (sugars k3 d10 k3, PS) | 44 |  |
| GAGTUGCACCGTTTTG (sugars k3 d1 m1 d8 k3, PS) | 63 |  |
| GTAATAAAGTCCAGAA (sugars k3 d10 k3, PS) | 66 |  |
| ACTGTGACGATGTGGC (sugars k3 d10 k3, PS) | 40 |  |

| Sequence | target mRNA inhibition (1 µM) [%] | further results |
| --- | --- | --- |
| ACTGAAATTGATACAC (sugars k3 d10 k3, PS) | 49 |  |
| CTACACTAATATTGAG (sugars kkdddddddddkekek, PS) | 5 |  |
| CTTTTAGGGAGGTAGC (sugars k3 d10 k3, PS) | 62 |  |
| TCCATCATCGATGGAA (sugars k3 d10 k3, PS) | 31 |  |
| TCCCTGTGTAAATAAG (sugars k3 d10 k3, PS) | 35 |  |
| TTGATATTCTGTGGCA (sugars kkdddddddddkekek, PS) | 55 |  |
| TCCATAATAATAGCTC (sugars k3 d9 k3 e1, PS) | 66 |  |
| GTTGCACCGTTTTGGG (sugars kkdddddddddkekek, PS) | 35 |  |
| AGGCTAGGGAAATCTT (sugars k3 d10 k3, PS) | 62 |  |
| TTAATGCCACCCTACC (sugars k3 d9 k3 e1, PS) | 20 |  |
| TATGTCCAGGTTGAGA (sugars k3 d10 k3, PS) | 64 |  |
| ACACTAATATTGAGGC (sugars k3 d10 k3, PS) | 68 | target mRNA inhibition (0.02 µM): 28%; target mRNA inhibition (0.078 µM): 32%; target mRNA inhibition (0.313 µM): 37%; target mRNA inhibition (1.25 µM): 58%; target mRNA inhibition (5 µM): 85% |
| AAGATACCCAGGTTGC (sugars kkdddddddddkekek, PS) | 59 |  |
| TGCTACTTGAACAGTC (sugars k3 d9 k3 e1, PS) | 68 |  |
| TTTTCGGCACTCAGCT (sugars k3 d10 k3, PS) | 13 |  |
| ACATTGCAGTTATTAG (sugars k3 d9 k3 e1, PS) | 52 |  |
| AAGTTACCAGAGCATT (sugars k3 d10 k3, PS) | 70 | target mRNA inhibition (0.02 µM): 0%; target mRNA inhibition (0.078 µM): 5%; target mRNA inhibition (0.313 µM): 45%; target mRNA inhibition (1.25 µM): 80%; target mRNA inhibition (5 µM): 90% |
| TGCTAGTGCCAAACCA (sugars k3 d1 m1 d8 k3, PS) | 80 | target mRNA inhibition (0.02 µM): 7%; target mRNA inhibition (0.078 µM): 29%; target mRNA inhibition (0.313 µM): 46%; target mRNA inhibition (1.25 µM): 67%; target mRNA inhibition (5 µM): 90% |
| TGAGCCTAAAATTGTC (sugars k3 d10 k3, PS) | 30 |  |
| GAGTGCATCTTAAGAT (sugars k3 d1 m1 d8 k3, PS) | 7 |  |
| ACACTAATCTCAGTAC (sugars k3 d10 k3, PS) | 6 |  |
| GGATTGCAGAAGAGTA (sugars k3 d10 k3, PS) | 76 | target mRNA inhibition (0.02 µM): 0%; target mRNA inhibition (0.078 µM): 13%; target mRNA inhibition (0.313 µM): 47%; target mRNA inhibition (1.25 µM): 77%; target mRNA inhibition (5 µM): 74% |
